In patent US7071210B2, “CETP inhibitors in combination with antihypertensive agents and uses thereof” (Pfizer Inc., priority 2002, dated 2006):

Test: Aqueous solubility
Format: physicochemical
Conditions: aqueous environments

CCOC(=O)N1c2ccc(C(F)(F)F)cc2[C@@H](N(Cc2cc(C(F)(F)F)cc(C(F)(F)F)c2)C(=O)OC)C[C@H]1CC [torceptrapib, [2R,4S]-4-[(3,5-bis-trifluoromethyl-benzyl)-methoxycarbonyl-amino]-2-ethyl-6-trifluoromethyl-3,4-dihydro-2H-quinoline-1-carboxylic acid ethyl ester]
solubility: < 0.04 µg/mL
